From patent US12427192B2, “Water soluble adjuvant and composition containing same” (Sumitomo Pharma Co., Ltd., priority 2019, dated 2025) come the findings set out here.

The assay concerns HLA-A*24:02 transgenic mouse. The assay can be described thus: Test 3: in vivo CTL induction, cocktail vaccine b, IFNγ ELISPOT. The following applies: FIG. 1; for CTL counts responsive to Peptide SEQ ID No. 2 on adding the compound to cocktail vaccine b: vs cocktail vaccine b alone, 100 ng Example 1 or 69 ng Reference example 12 per body, intradermal, twice. As to the method:
Evaluation of In Vivo CTL Induction in HLA-A*24:02 Transgenic Mouse
The in vivo adjuvant activity of the compound of Example 1 and the compound of Reference example 12 was evaluated in the following procedure. To a cocktail vaccine comprising Compound of formula 4 prepared in Reference example 8 and Peptide SEQ ID No. 3 prepared in Reference example 3 with Montanide ISA 51 V (hereinafter, referred to as “cocktail vaccine b”) was added the compound prepared in Example 1 or the compound prepared in Reference example 12 respectively to prepare each vaccine. The vaccine was administered to a HLA-A*24:02 transgenic mouse, and the adjuvant activity of each vaccine was evaluated by the method of testing antigen-specific cytotoxic T-lymphocyte (CTL) induction.
The CYTWNQMNL (SEQ ID No. 2) in Compound of formula 4 corresponds to an antigen peptide derived from an HLA-A*24:02-restricted WT1 protein.
HLA-A*24:02 transgenic mouse (C57BL/6CrHLA-A2402/K^b) expresses a chimeric HLA of a human MHC (HLA-A*24:02) and a mouse MHC (H-2K^b). The mouse can induce CTLs with a peptide which can induce CTLs in HLA-A*24:02-positive human (Int J Cancer. 2002; 100: 565-70).
The character for inducing CTLs specific to the peptide (SEQ ID No. 2) by cocktail vaccine b was evaluated by measuring whether IFNγ can be produced upon stimulation of splenocytes from the mouse with the peptide (SEQ ID No. 2). In addition, the character for exerting in vivo adjuvant activity by the compound in Example 1 or the compound in Reference example 12 was evaluated by comparing the number of CTLs induced by cocktail vaccine b and the number of CTLs induced by the vaccine prepared by adding the compound prepared in Example 1 or the compound in Reference example 12 to cocktail vaccine b, and checking presence or absence of the increase on the number.
Specifically, Compound of formula 4 and Peptide SEQ ID No. 3 were dissolved in DMSO, and then diluted with water for injection to concentrations of Compound of formula 4 of 6 mg/ml and Peptide of SEQ ID No. 3 of 4.5 mg/ml. […]

For `CCCCCNc1nc(N)nc(C)c1Cc1ccc(CN(C)CCOCCOCCOCCOCCO)cc1OC` [Example 1, 1-(4-{[2-amino-4-methyl-6-(pentylamino)pyrimidin-5-yl]methyl}-3-methoxyphenyl)-2-methyl-5,8,11,14-tetraoxa-2-azahexadecan-16-ol·trifluoroacetate], the “CTL counts responsive to Peptide SEQ ID No. 2 on adding the compound to cocktail vaccine b” value is reported as “increased”. Moreover, for the setting “added to cocktail vaccine b, 100 ng Example 1 vs 69 ng Reference example 12 per body”, the “increase of the CTL counts (Peptide SEQ ID No. 2) compared with Reference example 12” value was “more”.
For `CCCCCNc1nc(N)nc(C)c1Cc1ccc(CNC)cc1OC` [Reference example 12, 5-({2-methoxy-4-[(methylamino)methyl]phenyl}methyl)-6-methyl-N^4-pentylpyrimidine-2,4-diamine, reference compound], the “CTL counts responsive to Peptide SEQ ID No. 2 on adding the compound to cocktail vaccine b” value was “increased”.
